# Experimental data as given in US20190343908A1, “Therapeutic Combination for the Treatment of Cancer” (Nerium Biotechnology Inc., priority 2011, published 2019).
# Legend:
# [1] = tested on: HCT-15 (colorectal cancer); assay: Methyl-Tetrazolium viability assay, HCT-15; type: cell-based, human; parameters: key to MTT Average: absorbance (optical density) at 570 nm, second wavelength subtracted; details: for MTT Average 24 h / MTT Average 48 h / MTT Average 72 h: HCT-15, Run 1
# Excerpt: (§1) Three different viability assays were chosen to complement each other and yielded results dependent on concentration and cell line: the Methyl Tetrazolium dye assay, the Sulforhodamine B fluorescent dye assay, and the Crystal Violet dye assay.
# (§2) The Methyl-Tetrazolium dye assay measures the activity of enzymes in mitochondria. The dye precursor is taken up by cells, where it undergoes reduction to the purple formazan. It measures only the mitochondrial activity and, thus, it is not always a reliable indication of whether the cells themselves are alive or dead, since even a recently dead cell has […] enzyme activity in mitochondria. Intracellular glucose concentration, pH, and time before assay all affect the measurements.
# (§3) The Methyl Tetrazolium, Sulforhodamine B, and Crystal Violet assays were used to assess cell viabilities. The incubation times were 24 hours, 48 hours, and 72 hours. The Nerium oleander extract Anvirzel™ (a hot water extract of oleander obtained from Salud Integral, Honduras) was tested in concentrations ranging from 0.01 ng/mL to 10 ng/mL.
# (§4) Cells were detached by trypsinization (Trypsin-0.25% EDTA, Invitrogen, 25200-072) during the logarithmic phase of culture growth and plated in 96-well plates (18.000 cells/well) (Corning, Costar 359) in a final volume of 200 μl of medium per well. […] The absorbance was measured after 24 hours, 48 hours, and 72 hours of incubation.
# (§5) For the Methyl-Tetrazolium assay, the dye (Sigma, M2128; 5 mg/mL, diluted in phosphate-buffered saline) was added to each well and plates were incubated for 3 hours at 37° C. After the end of the incubation period, the medium was discarded and the cells were rinsed with phosphate-buffered saline. Finally, the formazan crystals were dissolved in dimethylsulphoxide (Sigma, D4540).
# (§6) The optical density of each plate was measured on a μQuant spectrophotometer and the data were analyzed with Gen5 software (μQuant Biomolecular Spectrophotometer MQX200 and Gen5™ Microplate Data Collection & Analysis software, BioTek® Instruments. Inc, April 2008). Absorbance was measured at 570 nm for all assays and a second wavelength was measured in order to subtract noise. For the Methyl-Tetrazolium assay this second wavelength was 630 nm and for the Sulforhodamine B and Crystal Violet assays it was 690 nm.
# [2] = tested on: COR-L 105 (non-small cell lung carcinoma); assay: Methyl-Tetrazolium viability assay, COR-L 105; type: cell-based, human; parameters: key to MTT Average: absorbance (optical density) at 570 nm, second wavelength subtracted; details: for MTT Average 24 h / MTT Average 48 h / MTT Average 72 h: COR-L 105, Run 3
# Excerpt: as §1, §2, §3, §4, §5, §6
# [3] = tested on: MCF-7 (human breast cancer); assay: Crystal Violet viability assay, MCF-7; type: cell-based; parameters: key: absorbance at 570 nm (second wavelength subtracted)
# Excerpt: The Sulforhodamine B and Crystal Violet assays provide information about protein and were used to complement the Methyl-Tetrazolium dye assay. […] It is used for the quantification of cellular proteins of cultured cells. The assay using Crystal Violet, a dye that binds electrostatically to proteins and stains DNA, provides a reliable, simple assay for measuring viability of cells.
# as §3, §4
# […] Formalin was removed and 0.25% aqueous crystal violet (Sigma, HT901), dissolved in water, was added for 10 minutes at RT. Unbound Crystal Violet was rinsed by washing with water and finally 33% acetic acid was added to dissolve the dye.
# as §6
compound,measurement,setting,value
N.N.[Cl][Pt][Cl] [cisplatin],MTT Average 24 h,[1]; 0.1 μg/ml CDDP,0.218
same,MTT Average 48 h,[1]; 0.1 μg/ml CDDP,0.324
same,MTT Average 72 h,[1]; 0.1 μg/ml CDDP,0.464
same,MTT Average 24 h,[1]; 1 μg/ml CDDP,0.032
same,MTT Average 48 h,[1]; 1 μg/ml CDDP,0.032
same,MTT Average 72 h,[1]; 1 μg/ml CDDP,0.025
same,MTT Average 24 h,[1]; 10 μg/ml CDDP,0.1
same,MTT Average 48 h,[1]; 10 μg/ml CDDP,0.046
same,MTT Average 72 h,[1]; 10 μg/ml CDDP,0.03
same,MTT Average 24 h,[1]; 100 μg/ml CDDP,0.034
same,MTT Average 48 h,[1]; 100 μg/ml CDDP,0.023
same,MTT Average 72 h,[1]; 100 μg/ml CDDP,0.017
same,MTT Average,"[1]; Run 2, 24 h, 0.1 μg/ml CDDP",0.141
same,MTT Average,"[1]; Run 2, 24 h, 1 μg/ml CDDP",0.03
same,MTT Average,"[1]; Run 2, 24 h, 10 μg/ml CDDP",0.094
same,MTT Average,"[1]; Run 2, 24 h, 100 μg/ml CDDP",0.025
same,MTT Average,"[1]; Run 2, 48 h, 0.1 μg/ml CDDP",0.233
same,MTT Average,"[1]; Run 2, 48 h, 1 μg/ml CDDP",0.031
same,MTT Average,"[1]; Run 2, 48 h, 10 μg/ml CDDP",0.067
same,MTT Average,"[1]; Run 2, 48 h, 100 μg/ml CDDP",0.014
same,MTT Average,"[1]; Run 2, 72 h, 0.1 μg/ml CDDP",0.214
same,MTT Average,"[1]; Run 2, 72 h, 1 μg/ml CDDP",0.016
same,MTT Average,"[1]; Run 2, 72 h, 10 μg/ml CDDP",0.041
same,MTT Average,"[1]; Run 2, 72 h, 100 μg/ml CDDP",0.01
same,MTT Average,"[1]; Run 3, 24 h, 0.1 μg/ml CDDP",0.294
same,MTT Average,"[1]; Run 3, 24 h, 1 μg/ml CDDP",0.028
same,MTT Average,"[1]; Run 3, 24 h, 10 μg/ml CDDP",0.137
same,MTT Average,"[1]; Run 3, 24 h, 100 μg/ml CDDP",0.039
same,MTT Average,"[1]; Run 3, 48 h, 0.1 μg/ml CDDP",0.391
same,MTT Average,"[1]; Run 3, 48 h, 1 μg/ml CDDP",0.035
same,MTT Average,"[1]; Run 3, 48 h, 10 μg/ml CDDP",0.104
same,MTT Average,"[1]; Run 3, 48 h, 100 μg/ml CDDP",0.026
same,MTT Average,"[1]; Run 3, 72 h, 0.1 μg/ml CDDP",0.457
same,MTT Average,"[1]; Run 3, 72 h, 1 μg/ml CDDP",0.039
same,MTT Average,"[1]; Run 3, 72 h, 10 μg/ml CDDP",0.043
same,MTT Average,"[1]; Run 3, 72 h, 100 μg/ml CDDP",0.017
same,MTT Average 24 h,[2]; 0.1 μg/ml CDDP,0.056
same,MTT Average 48 h,[2]; 0.1 μg/ml CDDP,0.069
same,MTT Average 72 h,[2]; 0.1 μg/ml CDDP,0.088
same,MTT Average 24 h,[2]; 1 μg/ml CDDP,0.02
same,MTT Average 48 h,[2]; 1 μg/ml CDDP,0.018
same,MTT Average 72 h,[2]; 1 μg/ml CDDP,0.012
same,MTT Average 24 h,[2]; 10 μg/ml CDDP,0.039
same,MTT Average 48 h,[2]; 10 μg/ml CDDP,0.023
same,MTT Average 72 h,[2]; 10 μg/ml CDDP,0.01
same,MTT Average 24 h,[2]; 100 μg/ml CDDP,0.019
same,MTT Average 48 h,[2]; 100 μg/ml CDDP,0.018
same,MTT Average 72 h,[2]; 100 μg/ml CDDP,0.009
same,MTT Average,"[2]; Run 1, 24 h, 0.1 μg/ml CDDP",0.083
same,MTT Average,"[2]; Run 1, 24 h, 1 μg/ml CDDP",0.023
same,MTT Average,"[2]; Run 1, 24 h, 10 μg/ml CDDP",0.057
same,MTT Average,"[2]; Run 1, 24 h, 100 μg/ml CDDP",0.015
same,MTT Average,"[2]; Run 1, 48 h, 0.1 μg/ml CDDP",0.099
same,MTT Average,"[2]; Run 1, 48 h, 1 μg/ml CDDP",0.018
same,MTT Average,"[2]; Run 1, 48 h, 10 μg/ml CDDP",0.023
same,MTT Average,"[2]; Run 1, 48 h, 100 μg/ml CDDP",0.016
same,MTT Average,"[2]; Run 1, 72 h, 0.1 μg/ml CDDP",0.056
same,MTT Average,"[2]; Run 1, 72 h, 1 μg/ml CDDP",0.017
same,MTT Average,"[2]; Run 1, 72 h, 10 μg/ml CDDP",0.021
same,MTT Average,"[2]; Run 1, 72 h, 100 μg/ml CDDP",0.018
same,MTT Average,"[2]; Run 2, 24 h, 0.1 μg/ml CDDP",0.056
same,MTT Average,"[2]; Run 2, 24 h, 1 μg/ml CDDP",0.02
same,MTT Average,"[2]; Run 2, 24 h, 10 μg/ml CDDP",0.039
same,MTT Average,"[2]; Run 2, 24 h, 100 μg/ml CDDP",0.019
same,MTT Average,"[2]; Run 2, 48 h, 0.1 μg/ml CDDP",0.069
same,MTT Average,"[2]; Run 2, 48 h, 1 μg/ml CDDP",0.018
same,MTT Average,"[2]; Run 2, 48 h, 10 μg/ml CDDP",0.023
same,MTT Average,"[2]; Run 2, 48 h, 100 μg/ml CDDP",0.018
same,MTT Average,"[2]; Run 2, 72 h, 0.1 μg/ml CDDP",0.088
same,MTT Average,"[2]; Run 2, 72 h, 1 μg/ml CDDP",0.012
same,MTT Average,"[2]; Run 2, 72 h, 10 μg/ml CDDP",0.01
same,MTT Average,"[2]; Run 2, 72 h, 100 μg/ml CDDP",0.009
same,CVE Average,"[3]; MCF-7, Run 2, 24 h, 0.1 μg/ml CDDP",0.71
same,CVE Average,"[3]; MCF-7, Run 2, 24 h, 1 μg/ml CDDP",0.192
same,CVE Average,"[3]; MCF-7, Run 2, 24 h, 10 μg/ml CDDP",0.612
same,CVE Average,"[3]; MCF-7, Run 2, 24 h, 100 μg/ml CDDP",0.288
same,CVE Average,"[3]; MCF-7, Run 2, 48 h, 0.1 μg/ml CDDP",0.664
same,CVE Average,"[3]; MCF-7, Run 2, 48 h, 1 μg/ml CDDP",0.239
same,CVE Average,"[3]; MCF-7, Run 2, 48 h, 10 μg/ml CDDP",0.24
same,CVE Average,"[3]; MCF-7, Run 2, 48 h, 100 μg/ml CDDP",0.221
same,CVE Average,"[3]; MCF-7, Run 2, 72 h, 0.1 μg/ml CDDP",0.678
same,CVE Average,"[3]; MCF-7, Run 2, 72 h, 1 μg/ml CDDP",0.151
same,CVE Average,"[3]; MCF-7, Run 2, 72 h, 100 μg/ml CDDP",0.147
same,CVE Average,"[3]; MCF-7, Run 3, 24 h, 0.1 μg/ml CDDP",0.454
same,CVE Average,"[3]; MCF-7, Run 3, 24 h, 1 μg/ml CDDP",0.183
same,CVE Average,"[3]; MCF-7, Run 3, 24 h, 10 μg/ml CDDP",0.307
same,CVE Average,"[3]; MCF-7, Run 3, 48 h, 0.1 μg/ml CDDP",0.811
same,CVE Average,"[3]; MCF-7, Run 3, 48 h, 1 μg/ml CDDP",0.871
same,CVE Average,"[3]; MCF-7, Run 3, 48 h, 10 μg/ml CDDP",0.769
same,CVE Average,"[3]; MCF-7, Run 3, 48 h, 100 μg/ml CDDP",0.439
same,CVE Average,"[3]; MCF-7, Run 3, 72 h, 0.1 μg/ml CDDP",1.312
same,CVE Average,"[3]; MCF-7, Run 3, 72 h, 1 μg/ml CDDP",0.51
same,CVE Average,"[3]; MCF-7, Run 3, 72 h, 10 μg/ml CDDP",0.449
same,CVE Average,"[3]; MCF-7, Run 3, 72 h, 100 μg/ml CDDP",0.253
same,CVE Average,"[3]; MCF-7 Run 1, 24 h, 0.1 μg/ml CDDP",0.978
same,CVE Average,"[3]; MCF-7 Run 1, 24 h, 1 μg/ml CDDP",0.376
same,CVE Average,"[3]; MCF-7 Run 1, 24 h, 10 μg/ml CDDP",0.468
same,CVE Average,"[3]; MCF-7 Run 1, 24 h, 100 μg/ml CDDP",0.285
same,CVE Average,"[3]; MCF-7 Run 1, 48 h, 0.1 μg/ml CDDP",1.112
same,CVE Average,"[3]; MCF-7 Run 1, 48 h, 10 μg/ml CDDP",0.303
same,CVE Average,"[3]; MCF-7 Run 1, 48 h, 100 μg/ml CDDP",0.153
same,CVE Average,"[3]; MCF-7 Run 1, 72 h, 0.1 μg/ml CDDP",1.632
same,CVE Average,"[3]; MCF-7 Run 1, 72 h, 1 μg/ml CDDP",0.325
same,CVE Average,"[3]; MCF-7 Run 1, 72 h, 10 μg/ml CDDP",0.237
same,CVE Average,"[3]; MCF-7 Run 1, 72 h, 100 μg/ml CDDP",0.284
